Test results: patent US5700639A, “Method for the detection of metabolically labelled DNA” (Boehringer Mannheim GmbH, priority 1993, dated 1997)

Tests used:
HL60 cells [1] = experiment: Detection of metabolically labelled DNA fragments in the cytoplasm of apoptotic cells (4 hours incubation); assay type: cell-based; settings: for A (405 nm), metabolically labelled DNA fragments in the cytoplasm: 37° C.
Experimental: (§1) The cells to be examined (e.g. HL60 cells, ATCC CCL 240) are firstly metabolically labelled by incubation with 0.01 mmol/l bromodeoxyuridine for 18 hours at 37° C. After removing the excess bromodeoxyuridine that is not incorporated into DNA by washing with culture medium, the cells (200 μl in each case, see Table 1 for cell number) are incubated for 4 hours at 37° C. with 2 μg/ml camptothecin (Sigma, Munich) in a microtitre plate. Afterwards 20 μl 10-fold concentrated lysis buffer (PBS/50 mmol/l EDTA/2 % Tween 20) is added to each preparation for the lysis, the microtitre plate is centrifuged and 100 μl supernatant is taken from each well for the test (PBS=137 mmol/l NaCl; 2.7 mmol/l KCl; 8 mmol/l Na2 HPO4 and 1.5 mmol/l KH2 PO4).
In order to detect the metabolically labelled DNA, a further microtitre plate is coated with an antibody against DNA (5 μg/ml, Boehringer Mannheim GmbH, Ident. No. 1525760) in 100 mmol/l NaCO3 buffer pH 9.6. Subsequently the metabolically labelled DNA is bound to the wall antibody by addition of 100 μl supernatant (see above) per well and incubation for 90 minutes at room temperature. After washing with PBS, the remaining liquid is removed from the wells of the microtitre plate by for example knocking. Afterwards the bound double-stranded DNA is denatured or partially degraded by microwave treatment (5 min. 650 watts, AEG Micromat 275Z) or alternatively by addition of 100 μl (corresponding to 1 unit per well of the microtitre plate) exonuclease III (Boehringer Mannheim GmbH, Catalogue No. 779717). The preparation in which the DNA has been denatured by microwave treatment is subsequently cooled for 10 minutes at 8° C. in a refrigerator. The preparation treated with exonuclease III is subsequently washed three times with PBS.
HL60 cells (ATCC CCL 240) were firstly metabolically labelled with bromodeoxyuridine as stated in example 1. After washing out excess bromodeoxyuridine, the cells are incubated in a microtitre plate at 37° C. for 3 or 4 hours with various concentrations of camptothecin (5000 to 0 ng/ml). Subsequently the microtitre plate is centrifuged, an aliquot of the cell culture supernatant (100 μl/well) is taken for the detection of metabolically labelled DNA in the cell culture supernatant according to example 2 and the cells remaining in the microtitre plate are lysed by addition of 100 μl/well 2-fold concentrated lysis buffer (PBS/10 mmol/l EDTA/0.4% Tween 20). The detection of the metabolically labelled DNA in the lysate obtained in this way is then carried out as described in example 1.

HL60 cells [2] = experiment: Detection of metabolically labelled DNA fragments in apoptotic cells (3 hours incubation); assay type: cell-based; settings: 200 ng/ml camptothecin, 37° C.
Experimental: as §1
In order to detect the metabolically labelled DNA, a further microtitre plate is coated with an antibody against DNA (5 μg/ml, Boehringer Mannheim GmbH, Ident. No. 1525760) in 100 mmol/l NaCO3 buffer pH 9.6. Subsequently the metabolically labelled DNA is bound to the wall antibody by addition of 100 μl supernatant (see above) per well and incubation for 90 minutes at room temperature. After washing with PBS, the remaining liquid is removed from the wells of the microtitre plate by for example knocking. […]

For `CC[C@@]1(O)C(=O)OCc2c1cc1n(c2=O)Cc2cc3ccccc3nc2-1` [camptothecin], the “A (405 nm), metabolically labelled DNA fragments in the cytoplasm” value (from here on “A (405 nm) … in the cytoplasm”) (HL60 cells [1]; 1.6 ng/ml camptothecin) was 0.295, the “A (405 nm) … in the cytoplasm” value (HL60 cells [1]; 8 ng/ml camptothecin) was 0.342 and the “A (405 nm) … in the cytoplasm” value (HL60 cells [1]; 40 ng/ml camptothecin) was 0.625. The “A (405 nm) … in the cytoplasm” value (HL60 cells [1]; 200 ng/ml camptothecin) was 1.006, the “A (405 nm) … in the cytoplasm” value (HL60 cells [1]; 1000 ng/ml camptothecin) was 1.457 and the “A (405 nm) … in the cytoplasm” value (HL60 cells [1]; 5000 ng/ml camptothecin) was 1.677. For the same compound, the “amount of cytoplasmic, metabolically labelled DNA fragments (dose dependence)” value (HL60 cells [1]; camptothecin 5000 to 0 ng/ml) was “correlates with the amount of camptothecin”, the “A (405 nm), metabolically labelled DNA, cell culture supernatant” value (HL60 cells [2]; cell culture supernatant (according to example 2)) was 0.020 and the “A (405 nm), metabolically labelled DNA, cytoplasm (lysate after detergent treatment)” value (HL60 cells [2]; cytoplasm (lysate after detergent treatment)) was 0.770.
